How the values were obtained:
[1] = system: lipopolysaccharide (LPS)-induced TNFα production in human peripheral blood mononuclear cells; test: Inhibition of LPS-induced TNFα production in hPBMC (ELISA); format: cell-based
Description: Inhibitory activity of compound 1 on lipopolysaccharide (LPS)-induced TNFα production in human peripheral blood mononuclear cells.
PBMC cells were inoculated into a 96-well plate of cell culture grade at a density of 100,000 cells/100 μL/well. The cell culture medium was RPMI-1640 supplemented with 10% serum. The plate was incubated in a 37° C., 5% CO2 incubator for 2 hours. 16.8 μL/well of the assay compound was added to the cells and then the cells were incubated in a 37° C., 5% CO2 incubator for 60 minutes. 16.8 μL/well of LPS was then added to the cells and the cells were incubated in a 37° C., 5% CO2 incubator for 18 hours. The final DMSO concentration was 0.1%.
In the first step, compound 1 was diluted from a stock concentration to 1.5 mM with 100% DMSO. In the second step, the diluted compound was used as the first point and serially diluted 3-fold with 100% DMSO for 9 points. In the third step, the compound was diluted 125-fold with a serum-free medium, at which time the concentration of DMSO was 0.8%. Then 16.8 μL of the compound diluted with the medium was transferred to a 100 μL cell plate.
The compound was added, and then the cell plate was placed in a 37° C., 5% CO2 incubator and incubated for 1 hour.
In the first step, LPS was diluted with ultrapure water to a stock concentration of 1 mg/mL. […]

[2] = system: PMA-induced ear edema in CD-1 mice; test: In vivo model of PMA-induced ear edema in CD-1 mice; settings: for inhibition rate of ear edema / inhibition rate of ear weight gain: application BID, 10 hours after PMA induction
Description: 1 mL of acetone was added to completely dissolve 1 mg of PMA, and then 800 μL of mother liquor was pipetted and added to 2400 μL of acetone to prepare 0.25 mg/mL PMA.
CD-1 mice were sorted according to ear thickness and body weight. […] 10 μL of PMA with a concentration of 0.25 mg/mL was applied to the front and back sides of the right ear of each mouse.
The mice in the first group were normal mice, and these mice will not be treated in any way; the mice in the second group were given a vehicle; and the mice in the third group, the fourth group, and the fifth group were given compound 1 at a dose of 0.1 mg/ear, 0.3 mg/ear, and 1 mg/ear, respectively. Drugs were applied to the right ear of the mice 30 minutes before and 15 minutes after PMA induction, respectively.
Measurement and sampling: Ten hours after PMA induction, the mice were anesthetized and the thickness of the right ear was measured. After measuring the thickness of the right ear, the mouse was immediately euthanized, and the ear piece was collected and weighed.
The assay data was expressed as mean±standard error of mean (Mean±SEM), and the degree of ear swelling and ear weight were analyzed by one-way analysis of variance (One-way ANOVA), wherein p<0.05 was considered a significant difference.

[3] = biological target: Recombinant human PDE4B (Homo sapiens (Human), UniProt Q07343); test: PDE4B enzyme inhibition, fluorescence polarization (Transcreener AMP2/GMP2); format: biochemical
Recombinant human PDE4B, sequence (Q07343 305-736 limits assumed): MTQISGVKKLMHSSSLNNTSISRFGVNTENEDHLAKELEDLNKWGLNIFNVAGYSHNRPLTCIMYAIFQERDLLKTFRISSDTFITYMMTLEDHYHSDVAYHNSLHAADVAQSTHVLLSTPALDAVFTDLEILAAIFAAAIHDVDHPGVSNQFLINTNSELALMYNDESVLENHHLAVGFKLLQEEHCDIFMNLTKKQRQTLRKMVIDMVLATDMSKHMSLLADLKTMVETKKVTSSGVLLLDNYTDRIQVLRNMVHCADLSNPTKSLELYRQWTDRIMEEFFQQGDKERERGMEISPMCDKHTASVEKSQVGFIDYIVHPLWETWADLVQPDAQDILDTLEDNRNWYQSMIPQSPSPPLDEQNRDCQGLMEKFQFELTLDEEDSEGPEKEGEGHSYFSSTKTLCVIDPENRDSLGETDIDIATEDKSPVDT
Description: The biological assay was based on fluorescence polarization measurement of AMP/GMP expression, that is, tracing binding of AMP/GMP antibody to indicate the activity of the enzyme.
Buffer solution for the assay: 10 mM trihydroxymethyl aminomethane-hydrochloric acid buffer solution (Tris-HCl) (pH 7.5), 5 mM MgCl2, 0.01% polyoxyethylene lauryl ether (Brij 35), 1 mM dithiothreitol (DTT), and 1% DMSO.
Enzyme: Recombinant human PDE4B (Genebank Accession Number NM_002600; amino acid 305 terminal) was expressed with baculovirus in Sf9 insect cells using N-terminal GST tag. MW=78 kDa.
Enzyme substrate: 1 μM cAMP
Detection: Transcreener® AMP2/GMP2 antibody and AMP2/GMP2 AlexaFluor633 tracing.
• 1. Dissolving the recombinant human PDE4B enzyme and enzyme substrate (1 μM cAMP) in freshly prepared assay buffer, respectively; • 2. Transferring the above PDE4B enzyme buffer solution to reaction wells; • 3. Adding compound 1 dissolved with 100% DMSO to reaction wells with the PDE4B enzyme buffer solution via acoustic technology (echo 550 nanoliter range) and incubating at room temperature for 10 min; • 4. […] The range of fluorescence polarization determination was Ex/Em=620/688. […]
The fluorescence polarization signal was converted into nM based on AMP/GMP standard curve and % enzyme activity calculated by Excel software relative to the DMSO control. […]

IC50 ([1]; Homo sapiens, PBMC, TNFα production in hPBMC, LPS 18 hours, average in triplicate): 63.9 nM | in vitro activity of inhibiting PDE4B (in words) [3]: excellent in vitro activity | IC50 ([3]; PDE4B, 1 μM cAMP substrate, average in triplicate): 26.2 nM
SMILES: CCOc1cc([C@@H](CS(C)(=O)=O)n2c(=O)[nH]c3cc(F)ccc32)ccc1OC [Compound 1]
in vitro activity of inhibiting TNFα production in hPBMC (in words) [1]: excellent in vitro activity | inhibition rate of ear edema ([2]; 0.1 mg/ear): 22% | inhibition rate of ear weight gain ([2]; 0.1 mg/ear): 39% | inhibition rate of ear edema ([2]; 0.3 mg/ear): 39% | inhibition rate of ear weight gain ([2]; 0.3 mg/ear): 46% | inhibition rate of ear edema ([2]; 1 mg/ear): 88% | inhibition rate of ear weight gain ([2]; 1 mg/ear): 85% | effect on the symptoms of PMA-induced ear edema (in words) ([2]; three dose groups of 0.1, 0.3 and 1 mg/ear): significant improvement effect
